From patent publication US12383556B2, “Methods of treating Sjögren's syndrome using a Bruton's tyrosine kinase inhibitor” (NOVARTIS AG, priority 2019, dated 2025)
Where two headings read alike, the source gives them in different places.

Columns and labels:
[1] = test system: mast cell FcγRIII-mediated inflammation; assay: Reverse passive Arthus (RPA) model, skin swelling; type: in vivo
Protocol: As the levels of BTK-expressing cells in skin were too low to allow occupancy measurement, the duration of the PD effect in skin after single dose was assessed in the reverse passive Arthus (RPA) model of mast cell FcγRIII-mediated inflammation. In this model, the inhibition of skin swelling was maximal when compound (I) was dosed 2 hours prior to eliciting the Arthus reaction. The effect diminished gradually and reached baseline when the Arthus reaction was triggered 45 hours or later after compound (I) dosing.

[2] = test system: defined allergen response (wheal size); assay: Skin prick test (SPT) in healthy atopic subjects; type: in vivo, human; conditions: for dose at which reduction of wheal size in SPT started to plateau: multiple ascending dose, q.d.
Protocol: The ability of compound (I) to inhibit a defined allergen response has been evaluated by means of the skin prick test (SPT) in healthy atopic subjects in the MAD study part of the first in human study. SPT was performed prior to dosing (at screening, baseline and pre-dose on Day 1) and at different time points after the first dose (Day 1) and after 11 days of once daily dosing (Day 12).

[3] = test system: FcεR1-mediated basophil activation; assay: Ex vivo basophil activation (CD63, CD203c), whole blood stimulated with anti-IgE, flow cytometry; type: in vivo, human
Protocol: In addition, ex vivo inhibition of basophil activation (monitored by surface expression of CD63 and CD203c) was used as distal mechanistic biomarker to test downstream PD effects of compound (I). To determine the PD effect of compound (I) on basophil activation, whole blood was stimulated ex vivo with anti-IgE. Degranulation was evaluated by percentage of CD63+ and CD203+ basophils by flow cytometry.

[4] = First-in-human Part 4 multiple dose b.i.d. blood PK; type: in vivo
From the text: (§1) First-in-human study in up to approximately 168 healthy volunteers (HVs), of which 64 (in Parts 2 & 4) had asymptomatic atopic diathesis. • Part 1 was a double-blind (subject and investigator blind, sponsor unblinded), placebo-controlled single ascending dose (SAD) escalation study of 10 cohorts (N=80) • Part 2 was a double-blind (subject and investigator blind, sponsor unblinded), placebo-controlled multiple ascending dose (MAD) (13 doses over 12 days) escalation study employing once daily dosing in 6 cohorts in healthy volunteers with asymptomatic atopic diathesis (N=48) • Part 3 was a single dose open-label crossover food effect study in 12 HVs • Part 4 was a double-blind (subject and investigator blind, sponsor unblinded), placebo-controlled multiple dose (25 doses over 12 days) study employing twice daily dosing in 2 cohorts of healthy volunteers with asymptomatic atopic diathesis (N=16)
In Parts 2 and 4, subjects were admitted on Day −2 or −1 for baseline safety assessments and to confirm eligibility. Eligible subjects received the first dose of compound (I) under fasting conditions on Day 1, and continued to take study medication under fasting conditions up to and including Day 12. Subjects were domiciled from Day −2 or −1 until the morning of Day 16, which equals 96 hours after the last dose of compound (I) was received. In Parts 2 and 4, the study medication was given once daily and twice daily respectively (details are found in the schedule of assessments).
Subjects were assigned to one of the following cohorts. In each cohort, 8 subjects were randomized to either Compound (I) or matching placebo in a 6:2 ratio. • Cohort 1: multiple oral doses of 100 mg Compound (I) or matching placebo in a bid regimen • Cohort 2: multiple oral doses of 200 mg Compound (I) or matching placebo in a bid regimen
Pharmacokinetic samples were obtained in blood and evaluated in all subjects at all dose levels. The samples from placebo subjects were not analyzed. […] Compound (I) concentrations were determined in blood by a validated LC-MS/MS method.

[5] = First-in-human Part 1 single ascending dose blood PK; type: in vivo
Protocol: A first-in-human study was conducted to assess the safety and tolerability, pharmacokinetics (PK) and pharmacodynamics (PD) of single and multiple doses of compound (I) both as once daily (qd) and twice daily (bid) oral administration in healthy volunteers and those with atopic diathesis, to support further clinical development of compound (I) in autoimmune diseases. This study also explored the effect of food intake.
as §1
In Part 1, subjects were admitted to the study site on Day −2 or −1 for baseline safety assessments and to confirm eligibility. Eligible subjects received a single dose of compound (I) or placebo under fasting conditions on Day 1. They were domiciled from Day −1 to the morning of Day 5 (96 hours post last drug administration).
Subjects were assigned to one of the following 10 cohorts. In each cohort, 8 subjects were randomized to either compound (I) or matching placebo in an overall 6:2 ratio. The first sub-cohort was randomized in a 1:1 ratio as one subject on compound (I) and one on matching placebo. The remaining 6 subjects per cohort, dosed after a 48-hour observation period of the initially dosed 2 subjects, were randomized in a 5:1 ratio. • Cohort 1: single oral dose of 0.5 mg compound (I) or matching placebo • Cohort 2: single oral dose of 1.5 mg compound (I) or matching placebo • Cohort 3: single oral dose of 5 mg compound (I) or matching placebo • Cohort 4: single oral dose of 15 mg compound (I) or matching placebo • Cohort 5: single oral dose of 30 mg compound (I) or matching placebo • Cohort 6: single oral dose of 60 mg compound (I) or matching placebo • Cohort 7: single oral dose of 100 mg compound (I) or matching placebo • Cohort 8: single oral dose of 200 mg compound (I) or matching placebo • Cohort 9: single oral dose of 400 mg compound (I) or matching placebo • Cohort 10: single oral dose of 600 mg compound (I) or matching placebo
Pharmacokinetic samples were obtained in blood and evaluated in all subjects at all dose levels. The samples from placebo subjects were not analyzed. The samples for PK assessments from subjects were collected at time points defined in the study. Compound (I) concentrations were determined in blood by a validated LC-MS/MS method.

increase of AUCtau from 100 mg to 200 mg b.i.d. ([4]; day 12): dose proportional increase
increase of Cmax from 100 mg to 200 mg b.i.d. ([4]; day 12): 1.33 fold
Tmax ([4]; human, blood, oral, b.i.d. regimen 100 mg and 200 mg): ~1 h
half-life ([5]; human, blood, oral, single ascending doses, dose-independent, read-out: distribution phase T1/2 (converted)): ~1 h
MRT ([5]; human, blood, oral, single ascending doses, read-out: mean residence time (MRT) in the circulation): 1 to 5 h
half-life ([5]; human, blood, oral, single dose 100 mg, read-out: terminal half-life (converted)): 4 h
half-life ([5]; human, blood, oral, single dose 600 mg, read-out: terminal half-life (converted)): 18 h
oral blood clearance CL/F, estimate across all cohorts ([5]; single dose): about 383 L/h
SMILES: C=CC(=O)N(C)CCOc1c(N)ncnc1-c1cc(F)cc(NC(=O)c2ccc(C3CC3)cc2F)c1C [Compound of Formula (I), N-(3-(6-Amino-5-(2-(N-methylacrylamido)ethoxy)pyrimidin-4-yl)-5-fluoro-2-methylphenyl)-4-cyclopropyl-2-fluorobenzamide]
time after dosing of Arthus trigger at which effect reached baseline ([1]; single dose): ≥ 45 h
inhibition of skin swelling ([1]; single dose 2 hours prior to eliciting the Arthus reaction): maximal
inhibition of wheal size in SPT ([2]; 10 mg q.d.): minimal inhibition
dose at which reduction of wheal size in SPT started to plateau ([2]; listed as compound (I)): around 100 mg
dose at which reduction of wheal size in SPT started to plateau ([2]; listed as compound of Formula (I)): 100 mg
reduction of CD63 up-regulation ([3]; 10 mg q.d., as restated): > 80%
inhibition of CD63 upregulation ([3]; 10 mg q.d., day 12 (steady state), 8 h after administration): > 90%
maximum trough inhibition of CD203c activation ([3]; Day 12, multiple doses): only achieved with b.i.d. administration of 100 mg and 200 mg
trough level inhibition of CD63 ([3]; doses ≥50 mg q.d., day 12): > 90%
inhibition of ex vivo basophil activation measured by CD63 ([3]; single dose 60 mg, 24 h post dose): > 89%
maximum inhibition of CD203c ([3]; single dose 200 mg, 24 h post dose): ~50%
inhibition of ex vivo basophil activation measured by CD63 ([3]; single doses higher than 60 mg, 24 h post dose): ~100%
